Data: the supplement of paper PMC10307832

compound: COc1cccc2c1C(=O)c1c(O)c3c(c(O)c1C2=O)C[C@@](O)(C(=O)CO)C[C@@H]3O[C@H]1C[C@H](N)[C@H](O)[C@H](C)O1 [Doxorubicin] + CS(=O)(=O)N1CCN(Cc2cc3nc(-c4cccc5[nH]ncc45)nc(N4CCOCC4)c3s2)CC1 [Pictilisib] (partner 1 µM); experiment: relative viability (nuclei count vs DMSO), 5 days (fraction); higher = more cells survive; conditions: first compound 0.01 µM
Procedure, shortened: (§1)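 Lung cancer cell lines were pin-tool dosed in 1536-well plates on the day after seeding, with either a lone drug or a fixed anchor-drug dose plus five library-drug doses (not always all listed) in √10 steps. Nuclei were counted on 4× images after 5 days. Relative viability is the ratio of treated-well to vehicle-well nuclei counts, with each value a median of duplicate plates.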

Cell Line	relative viability
NCI-H1975	0.237
HOP-62	0.782
NCI-H2405	0.507
NCI-H1355	0.465
NCI-H838	0.387
NCI-H1666	0.309
EPLC-272H	0.354
NCI-H2347	0.803
NCI-H1915	0.954
NCI-H1437	0.363
NCI-H460	0.392
NCI-H1792	0.309
NCI-H2085	0.512
HCC-15	0.614

same assay, conditions: first compound 0.03162 µM

Cell Line	relative viability
NCI-H358	0.175
NCI-H322M	0.561
HCC-78	0.196
LXF-289	0.783
BEN	0.472
HARA	0.357
HCC-827	0.993
LOU-NH91	0.465
A-427	0.636
NCI-H647	0.279
PC-3 [JPC-3]	0.713
NCI-H1755	0.444
NCI-H650	0.734
NCI-H3122	0.527
NCI-H441	0.292
NCI-H1395	0.628

Cell Line	relative viability
201T	0.719
NCI-H1975	0.177
HOP-62	0.553
NCI-H2405	0.356
NCI-H1355	0.412
NCI-H838	0.227
NCI-H1666	0.237
EPLC-272H	0.33
NCI-H2347	0.615
NCI-H1915	1.06
NCI-H1437	0.122
NCI-H460	0.309
NCI-H1792	0.209
NCI-H2085	0.459
HCC-15	0.467

same assay, conditions: first compound 0.1 µM

Cell Line	relative viability
NCI-H358	0.181
NCI-H322M	0.564
HCC-78	0.0644
LXF-289	0.745
BEN	0.493
HARA	0.294
HCC-827	0.935
LOU-NH91	0.419
A-427	0.791
NCI-H647	0.1
PC-3 [JPC-3]	0.702
NCI-H1755	0.44
NCI-H650	0.711
NCI-H3122	0.611
NCI-H441	0.323
NCI-H1395	0.421

Cell Line	relative viability
201T	0.68
NCI-H1975	0.198
HOP-62	0.717
NCI-H2405	0.276
NCI-H1355	0.44
NCI-H838	0.182
NCI-H1666	0.271
EPLC-272H	0.336
NCI-H2347	0.635
NCI-H1915	1.03
NCI-H1437	0.143
NCI-H460	0.249
NCI-H1792	0.251
NCI-H2085	0.519
HCC-15	0.478

compound: COC1=C(C=C(C=C1)C2=CC3=NC=CN3C(=N2)NC4=C(C=CC=N4)C(=O)N)OC [BAY61-3606] + O=C(c1cc(Cc2n[nH]c(=O)c3ccccc23)ccc1F)N1CCN(C(=O)C2CC2)CC1 [Olaparib] (partner 8 µM); experiment: as above; conditions: first compound 0.02 µM
Procedure, shortened: as §1

Cell Line	relative viability
NCI-H358	0.654
